Experimental data as given in patent US10113968B2, “Specific detection and quantification of cardiolipin and isolated mitochondria by positively charged AIE fluorogens and method of manufacturing thereof” (priority 2013, dated 2018).

Experiments:
[1] = Fluorescence response of dye to CL-containing (TOCL/DOPC) and CL-free (DOPC) LUVs; settings: for emission with CL-containing vesicles: TOCL/DOPC 1:1, 25 mM HEPES pH 7.4, λex=350 nm
Procedure: CL-containing vesicles are composed of TOCL/DOPC (1:1 molar ratio), and CL-free vesicles are composed of pure DOPC, respectively, in a 25 mM HEPES buffer at pH 7.4. [dye]=10 μM; [lipid]total=22 μM; λex=350 nm.
FIG. 3A is a plot of the fluorescence enhancement (I/I0−1) of TTAPE-Me at 480 nm with CL-containing and CL-free vesicles.
FIG. 3B is the linear region of the I/I0−1 value versus CL concentration. [dye]=10 μM; λex=350 nm.
FIG. 4B is a plot of the fluorescence enhancement at 480 nm versus CL content. [dye]=10 μM; [lipid]total=22 μM; λex=350 nm.
CL-containing and CL-free vesicles are composed of TOCL/DOPC (1:1 molar ratio) and pure DOPC, respectively, in a 25 mM HEPES buffer at pH 7.4. [dye]=10 μM; [lipid]total=22 μM; λex=350 nm.
The fluorescence enhancement (I/I0−1) of TTAPE-Me at 480 nm is in a linear fashion in the CL concentration of 0-10 μM (FIG. 3B), which lies in the physiological range of CL in mitochondrial membrane. Linear detection of CL can also be obtained with the varying content of TOCL (2-50% TOCL) in the vesicles (FIG. 4A-4B). The results imply that flexible TTAPE-Me to CL ratio is allowed in the detection and quantification of CL. In contrast, conventional NAO requires strict 2:1 ratio of NAO/CL for quantitative measurement. Moreover, the detection of CL can be done immediately upon mixing the vesicles with the probe without any extra treatment.
To determine whether TTAPE-Me can specifically detect CL, two types of large unilamellar vesicles (LUVs) 100-200 nm in diameter were prepared (FIG. 2A-2B). The CL-free vesicles were prepared by pure 1,2-dioleoyl-sn-glycero-[…] (DOPC), which is the most abundant phospholipid in eukaryotic membranes. CL-containing vesicles were fabricated by the mixture of 1,1′,2,2′-tetraoleoyl cardiolipin (TOCL) and DOPC, in which the zwitterionic DOPC is used to stabilize the vesicles.

[2] = Fluorescence response to CL-containing and CL-free all-component LUVs; settings: [dye]=10 μM
Procedure: (§1) Emission spectra of (C) TTAPE-Me and (D) NAO with CL-containing and CL-free all-component vesicles are shown. (E) Bar chart of the change in fluorescence intensity shown in panels C and D (red: CL-containing vesicles, blue: CL-free vesicles). [dye]=10 μM; [lipid]total=22 μM; for TTAPE-Me: λex=350 nm and λem=480 nm; for NAO: λex=499 nm and λem=530 nm.
Meanwhile, to mimic the mitochondrial membranes, CL-containing and CL-free all-component LUVs were prepared. The CL-containing and CL-free all-component LUVs were composed by the mixture of all the above mentioned lipids at their physiological ratios (FIG. 9A-9B). […] With the CL-containing LUVs, the greenish-blue fluorescence is enhanced by over 3-fold (FIGS. 7C & E). Parallel experiments were conducted with NAO as the probe. NAO is a turn-off sensor whose fluorescence is decreased in the presence of CL (FIG. 7D). However, CL is not the only lipid that induces the decrease of NAO signals—other lipids such as DPPE, PI, or DOPS, can also induce the decrease of NAO signals to a large extent (FIG. 7B).

[3] = Fluorescence response to vesicles of different single mitochondrial lipids; settings: 20% TOCL, 100% DOPC, 40% DPPE, 2% soy PI, 1% DOPS, 2% SM, rest DOPC; [dye]=10 μM; [lipid]total=22 μM
Procedure: as §1
To further evaluate the specificity of TTAPE-Me towards CL, the response of TTAPE-Me to other major lipids found on mitochondrial membranes was examined. The other major lipids evaluated were 1,2-dipalmitoleoyl-sn-glycero-3-phosphoethanolamine (DPPE):
Six different types of LUVs were fabricated and were composed of each of the above lipids and TOCL and DOPC at the exact percentage as mitochondrial membrane, with the remaining percentage of each type of LUV filled by DOPC.
While DOPS and PI are also negatively charged, they carry only one charge per molecule and share only 1% and 2% of the total mitochondrial membrane lipids, respectively (CL for ˜20%).

[4] = background statement; cited from earlier work
isolated mitochondria = assay: Quantification and staining of isolated yeast mitochondria by fluorescence; parameters: species or system S. cerevisiae strain YPH 500; settings: SEM buffer pH 7.2; [dye]=10 μM; λex=350 nm; emission at 480 nm
Source text: Individual mitochondria from S. cerevisiae strain YPH 500 have been isolated and calibrated by Biuret test. […] In contrast, time-consuming and intricate procedures are involved when using NAO for the quantification of isolated mitochondria. The isolated mitochondria are fixed by formaldehyde, followed by multiple rinsing, centrifugation and resuspension steps. Further, the signal-to-noise ratio by using NAO is much smaller, likely due to the strong background of NAO in solution.

pUC 18 DNA, 2686 bp = assay: Fluorescence of TTAPE-Me in the presence of plasmid DNA; settings: wide range of DNA concentrations; [dye]=10 μM; λex=350 nm
Procedure: (TTAPE-Me with CL-containing LUVs is shown for comparison) [dye]=10 μM; λex=350 nm.
On the other hand, one might think that the negatively charged mitochondrial DNA (mtDNA) may interfere with the detection of CL by TTAPE-Me.

[5] = Isothermal titration calorimetry (ITC) of CL-containing vesicles with TTAPE-Me; type: binding; settings: 25° C., CL-containing vesicles TOCL/DOPC 1:1, curve fitting, read-out: dissociation constant
Procedure: [dye]=10 μM; [lipid]total=22 μM; λex=350 nm. (B) Job plot for determination of the binding stoichiometry of TTAPE-Me to CL-containing vesicles. The total concentration of TTAPE-Me and CL is kept at 20 μM. (C) calorimetric curves for titration of CL-containing vesicles with serial injections of TTAPE-Me at 25° C. (D) Binding isotherm as a function of [TTAPE-Me]/[lipid]total molar ratio. CL-containing vesicles are composed of TOCL and DOPC (1:1 molar ratio).
According to the AIE principle, TTAPE-Me is only fluorescent when bound, and thus the fluorescence can report the binding of TTAPE-Me to CL-containing vesicles. The emission intensity varying ratios of TTAPE-Me to CL-containing LUVs is then recorded and correlated to a Job plot (FIG. 5B). The plot has a peak at ˜0.67, corresponding to a 2:1 binding ratio for TOCL to TTAPE-Me. The binding ratio perfectly matches the charge ratio, providing further support that the binding of TTAPE-Me towards CL is primarily driven by electrostatic interaction. […] The binding curve was generated by integration of the area of each injection peak followed by the subtraction of the dilution heat of dye molecules (FIG. 5D).

[6] = [dye]=10 μM, [lipid]total=22 μM

Structure (SMILES)	emission with CL-containing vesicles [1, 6]	fluorescence in the presence of CL (all-component LUVs) ([2]; λex=499 nm, λem=530 nm)	fluorescence response to vesicles of different lipid contents (selectivity) [3]	water-solubility [4]	emission spectrum with CL-free all-component LUVs ([2]; [lipid]total=22 μM)	fluorescence enhancement with CL-containing all-component LUVs ([2]; [lipid]total=22 μM, λex=350 nm, λem=480 nm)	relation of fluorescence intensity to mitochondria concentration (isolated mitochondria)	fluorescence in the presence of plasmids (pUC 18 DNA, 2686 bp)	fluorescence with CL-containing vesicles on increase of NaCl concentration [1, 6]	emission with CL-free vesicles ([1]; pure DOPC vesicles, increasing total lipid concentration)	Kd [5]
O=S(=O)([O-])CCCOc1ccc(/C(=C(\c2ccccc2)c2ccc(OCCCS(=O)(=O)[O-])cc2)c2ccccc2)cc1.[Na+].[Na+] [BSPOTPE, reference compound]	no remarkable fluorescence enhancement	–	–	–	–	–	–	–	–	–	–
CCCCCCCCC[n+]1c2cc(N(C)C)ccc2cc2ccc(N(C)C)cc21.[Br-] [NAO, 10-N-nonyl acridine orange, reference compound]	–	decreased	poor selectivity	poor water-solubility	–	–	–	–	–	–	–
C[N+](C)(C)CCOc1ccc(C(=C(c2ccc(OCC[N+](C)(C)C)cc2)c2ccc(OCC[N+](C)(C)C)cc2)c2ccc(OCC[N+](C)(C)C)cc2)cc1.[Br-].[Br-].[Br-].[Br-] [TTAPE-Me, 1,1,2,2-tetrakis[4-(2-trimethylammonio-ethoxy)phenyl]ethene tetrabromide]	turned on	–	selectively turned on with the TOCL vesicles	–	remains identical to that of the free dye in buffer	over 3 fold	linear relationship	no fluorescence enhancement	diminishes	remains rather weak	2080 nM
